According to US9532553B2, “Process for treating with a chemical compound a body of water used in aquaculture” (SOLVAY SA, priority 2009, dated 2017):

Tests used:
Atlantic salmons = conditions: Example 3: 1500 ppm hydrogen peroxide in 500 m^3 sea water, added in about 4.5 min via eductor nozzle agitation system, treatment continued 22.5 min
Protocol: The treatment was continued for 22.5 minutes then the treated water was flushed away and replaced by fresh seawater.
In Example 3, the body of water comprised additionally Atlantic salmons as living organisms, said salmons being infested with external parasites, i.e. salmon lice (Lepeophtheirus salmonis). The purpose of the test was to remove these parasites from the fish.

[1] = system: salmon lice (Lepeophtheirus salmonis); conditions: Example 3: 1500 ppm hydrogen peroxide in 500 m^3 sea water, added in about 4.5 min, treatment continued 22.5 min, then flushed; infested Atlantic salmons

OO [hydrogen peroxide]
injury to the fish (Atlantic salmons): without injuring the fish
removal of salmon lice from the treated fish [1]: effective in removing the salmon lice
